These results are taken from patent US20250144069A1, “BILOBALIDE DERIVATIVE COMPOUNDS FOR TREATING NEUROLOGICAL DISEASES AND CANCERS” (The Chinese University of Hong Kong, priority 2023, published 2025).

Data set [1] deals with Jurkat cells. The data set is described as follows: Single-dose CCK-8 cell viability screening (suspension cells). The format is cell-based, human. Conditions: Homo sapiens, Jurkat, 48 h, Jurkat cells, 50 uM, CCK-8, read-out: % Viability (50 uM, 48 h) Jurkat.
Data set [2] deals with HMC3 microglial cell line. The data set is described as follows: RSL3-induced ferroptosis model, cell viability (CCK-8). In kind it is cell-based.
Data set [3] has as its system HMC3 cells. The format is cell-based. Conditions: then 50 μM compound 22 h.
The subject of data set [4] is GPX4. The data set is described as follows: GPX4 protein level by Western-blot. The format is cell-based. From the text: As mentioned above, RSL3 treatment results in an oxidized environment in cells, which promotes the CMA to scavenge damaged proteins including GPX4 or glyceraldehyde-3-phosphate dehydrogenase (GAPDH), a well-known CMA substrate. To gain insights into the mechanism of action of bilobalide analogue XBB-037 against the RSL3-induced ferroptosis, HMC3 cells were pre-treated with RSL3, followed by treatment with or without bilobalide analogue XBB-037.
(§1) In FIN56 assay, HMC3 (300,000 cells per well on 6-well plate) was pre-treated with FIN56 (2.5, 1.25, 0.625 μM) for 2 h, followed by 8 h treatment of DMSO only (0.1%) or XBB-037 (50 μM). In RSL3 assay, HMC3 (300,000 cells per well on 6-well plate) was pre-treated with RSL3 (750, 500, 250 nM) for 2 h, followed by 4 h or 8 h treatment of DMSO only (0.1%) or XBB-037 (50 μM). […] Antibodies for GPX4 (52455, CST) was used at 1:500 dilution, β-Actin (AC026, ABclonal) was used at 1:400,000 dilution, GAPDH (AC035, ABclonal) was used at 1:3000 dilution. […] Band intensity was normalized by image lab software.
Now referring to FIGS. 7E-7F, GPX4 levels in HMC3 cells pre-treated with RSL3 are shown. Protein levels of GPX4 and […] at 0, 250, 500 or 750 nM RSL3 were measured by Western-blot. HMC3 cells were pretreated with RSL3 for 2 hours and then treated with or without 50 μM bilobalide analogue XBB-037 for 4 hours.
In addition to […], FIN56 was further used to investigate the GPX4 regulation of bilobalide analogue XBB-037. As mentioned above, FIN56 is a Class III ferroptosis inducer, which causes the depletion of cellular GPX4 levels without affecting GPX4 activity. In this experiment, HMC3 cells were pretreated with FIN56 for 2 hours and then treated with or without 50 μM XBB-037 for 8 hours. Protein levels were measured by Western-blotting using indicated antibodies. Data were plotted as mean±s.d., n=3 technical replicates. **p<0.01. Statistical analyses were performed by two-way ANOVA with multiple comparisons using Two-stage linear step-up procedure of Benjamini, Krieger and Yekutieli multiple comparisons test. […]

Data set [5] has as its system GAPDH. Briefly: GAPDH protein level by Western-blot after RSL3. Conditions: HMC3, 500 nM RSL3 2 h, then various concentrations of compound 8 h. The format is cell-based. How it is done:
as §1
This observation reflected the governing of GPX4 by bilobalide analogue XBB-037, which played an important role in the mechanism against RSL3-induced ferroptosis.

Data set [6] has as its system HMC3 cells. Briefly: Cytotoxicity, cell viability of HMC3 cells. The format is cell-based. Conditions: 24 h treatment. From the text: Now referring to FIG. 11A, a chart showing the cell viability (%) of HMC3 cells treated with SXQ087-1, XBB-037 or bilobalide.
For data set [7], the system named is HT22 mouse hippocampal cell line. Briefly: RSL3-induced ferroptosis model, cell viability (CCK-8).
Experimental: In this example, the anti-ferroptotic properties of the BB analogues described in preceding examples were evaluated by a RSL3-induced ferroptosis model. […] To evaluate the anti-ferroptosis activity of BB analogues, we developed a phenotypic screening based on RSL3-induced ferroptosis model on HT22 mouse hippocampal cell line, HMC3 microglial cell line and BV-2 murine microglial cell line which were co-treated or pre-treated with RSL3 and BB analogues for 2-24 h, and the cell viability was subsequently measured.
HMC3 cell line was maintained in Minimum Essential Medium (MEM, Gibco) supplemented with 1× non-essential amino acid (Gibco), 1 mM sodium pyruvate (Gibco), 10% fetal bovine serum (FBS) (Gibco) and 1% penicillin/streptomycin (Gibco). BV-2 cell line was maintained in Roswell Park Memorial Institute (RPMI) 1640 medium (Gibco) supplemented with 10% FBS and 1% penicillin/streptomycin, and HT22 cell line was maintained in Dulbecco's Modified Eagle's Medium (DMEM) (Gibco) supplemented with 10% FBS and 1% penicillin/streptomycin. All cells were incubated at 37° C. in a humidified atmosphere under 5% CO2.
For phenotypic screening of bilobalide (BB) analogues, 5,000 cells per well (100 uL volume) of HT22, HMC3 or BV-2 cells were placed in 96-well plate and allowed to adhere for 22 h. After which, cells were pre-treated with 200 nM (on HT22, HMC3) or 500 nM (on BV-2) of RSL3 (Bidepharm) for 2 h respectively. Medium was then replaced by 50 μM BB analogues and followed by 22 h incubation subsequently. Cell viability was measured using cell counting kit-8 (CCK-8) (MCE). For dose-response of BB analogues, RSL3, HT22 and HMC3 cells (seeded on 96-well plates at 5,000 cells per well) were treated with multiple doses of RSL3 for 2 h. […] Cell viability was measured after 22 h treatment by CCK-8. […] Cell viability was measured by CCK-8 using CLARIOstar monochromator multimode plate reader under 450 nm wavelength.
In this example, the cells were pre-treated with RSL3 (200 nM for HT22 and HMC3, 500 nM for BV-2) for two hours, followed by bilobalide analogues treatment (50 PM) for 22 hours. Cell viability was measured using cell counting kit-8 (CCK-8); n=5 technical replicates. […] Such effect was further investigated by treating the cell lines with various doses of RSL3.
Data set [8] relates to BV-2 murine microglial cell line. Described as above. Conditions: BV-2, RSL3 500 nM 2 h, then 50 μM compound 22 h.
Experimental: In this example, the anti-ferroptotic properties of the BB analogues described in preceding examples were evaluated by a RSL3-induced ferroptosis model. […] To evaluate the anti-ferroptosis activity of BB analogues, we developed a phenotypic screening based on RSL3-induced ferroptosis model on HT22 mouse hippocampal cell line, HMC3 microglial cell line and BV-2 murine microglial cell line which were co-treated or pre-treated with RSL3 and BB analogues for 2-24 h, and the cell viability was subsequently measured. […]
For phenotypic screening of bilobalide (BB) analogues, 5,000 cells per well (100 uL volume) of HT22, HMC3 or BV-2 cells were placed in 96-well plate and allowed to adhere for 22 h. […] Cell viability was measured using cell counting kit-8 (CCK-8) (MCE). […] Cell viability was measured after 22 h treatment by CCK-8. […] Cell viability was measured by CCK-8 using CLARIOstar monochromator multimode plate reader under 450 nm wavelength.
In this example, the cells were pre-treated with RSL3 (200 nM for HT22 and HMC3, 500 nM for BV-2) for two hours, followed by bilobalide analogues treatment (50 PM) for 22 hours. Cell viability was measured using cell counting kit-8 (CCK-8); n=5 technical replicates. […]

For `CC(C)(C)[C@]1(O)C[C@@H]2OC(=O)C[C@@]23C(=O)O[C@@H]2N(c4ccc(N)cc4)C(=O)[C@H](OC(=O)c4ccccc4)[C@]213` [XBB-037, 4-(3aS,5aS,8R,9R,10aS)-8-(benzoyloxy)-9-(tert-butyl)-9-hydroxy-2,4,7-trioxohexahydro-4H,9H-furo[3″,2″:2′,3′]cyclopenta[1′,2′:3,4]furo[2,3-b]pyrrol-6(5aH)-yl)benzenaminium chloride], the viability – broadly, the share of living cells, or the viability signal relative to a control – at 50 µM in data set [1] came to 86%. Besides, the “inhibition of RSL3-induced ferroptosis (phenotypic screening, cell viability)” value is given as “effectively inhibit ferroptosis” in data set [2] (HMC3, RSL3 200 nM 2 h, then 50 μM compound 22 h); “effectively inhibit ferroptosis” in data set [7] (HT22, RSL3 200 nM 2 h, then 50 μM compound 22 h); “effectively inhibit ferroptosis” in data set [8]. The “shift of RSL3 dose-dependent viability curve” value in data set [2] (HMC3, multiple doses of RSL3, 50 μM compound) is “diminished RSL3 lethality”; in data set [7] (HT22, multiple doses of RSL3, 50 μM compound), “diminished RSL3 lethality”. The “protection against FIN56-induced cell death (cell viability)” value in data set [3] (HMC3, FIN56 2 h) is given as “effectively suppressed FIN56-induced cell death”. The “protection against ML162 lethality (cell viability)” value in data set [3] (HMC3, ML162 2 h) is on record as “alleviated the lethality of ML162”. Besides, the “protection against ML210 lethality (cell viability)” value in data set [3] (HMC3, ML210 2 h) was “alleviated the lethality of ML210”. Further, the “protection against erastin-induced lethality (cell viability)” value in data set [3] (HMC3, erastin 2 h) was “suppressed erastin-induced lethality”. Further, the “GPX4 level after FIN56” value in data set [4] (HMC3, FIN56 0.625, 1.25, 2.5 μM 2 h, then 50 μM compound 8 h) is reported as “significantly restored GPX4 level”. For the same compound, the “GPX4 level after RSL3” value in data set [4] (HMC3, RSL3 0, 250, 500 or 750 nM 2 h, then 50 μM compound 4 h) is given as “RSL3-induced GPX4 degradation was reduced”. Further, the “GAPDH level after RSL3” value in data set [5] is recorded as “restored the level of GAPDH”. In addition, the “cytotoxicity (cell viability)” value in data set [6] was “no significant cytotoxicity”.
